In US20020028809A1 (SUNTORY LIMITED, priority 1999, published 2002):
Read-outs that look alike come from different tables or passages of the source.

Assays:
[1] = biological target: T1, α4β2 subtype of nicotinic acetylcholine receptors (Rattus norvegicus, UniProt P09483+P12390); experiment: Binding assays at α4β2 subtype of nicotinic acetylcholine receptors ([3H]-cytisine, rat brain membrane)
T1 construct: examined using rat brain membrane obtained from whole homogenized brain; from tissue; host or cells: whole brain of Fischer-344 male rats, membrane pellet

[2] = biological target: T2, human α4β2 subtype of nicotinic acetylcholine receptors (Homo sapiens, UniProt P17787+P43681); experiment: Agonist activities at human α4β2 subtype of nicotinic acetylcholine receptors expressed in Xenopus oocytes (membrane potential holding method); type: cell-based; conditions: for Emax at 100 µM: read-out: Agonist activity: control % by response at 100 μM of the test compound
T2 construct: expressed in transfected cells; host or cells: Xenopus laevis oocytes injected with 50 ng each of α4 and β2 cRNA (pSP64 polyA vector)
Protocol: Agonist effect in human α4β2 subtype of nicotinic acetylcholine receptors are examined by using human nicotinic acetylcholine receptors prepared in oocytes of Xenopus laevis, which is injected with cRNA from the corresponding cloning cDNA of human α4 and β2 subunits of nicotinic acetylcholine receptors, and to measure the expression of electric response by adding the test compounds to perfusion solution by means of membrane potential holding method.
Agonist Activities at Human α4β2 Subtype of Nicotinic Acetylcholine Receptors
(1) Preparation of cRNA of Human α4β2 Subtype of Nicotinic Acetylcholine Receptors
Obtained hnACh-R α4 cDNA and hnACh-R β2 cDNA were inserted to the cRNA expression vector (pSP64 polyA) having SP6 RNA promoter to construct hnACh-R α4/pSP64 polyA and hnACh-R β2/pSP64 polyA, respectively. After cutting from expression vector by restriction enzyme (EcoRI), transcription was performed by affecting SP6 RNA polymerase in the presence of cap analogues to obtain hnACh-R α4 cRNA and hnACh-R β2 cRNA, respectively.
(2) Expression of Human α4β2 Subtype Nicotinic Acetylcholine Receptors in Xenopus oocytes
Oocytes were purchased from Kitanihonseibutsukyohzai Co., Ltd., which were already enucleated from Xenopus laevis, and used in this experiment.
The oocytes were treated with collagenase (Sigma type I; 1 mg/ml) in calcium-free modified Birth's solution (88 mM of NaCl, 1 mM of KCl, 2.4 mM of NaHCO3, 0.82 mM of MgSO4, 15 mM of HEPES, pH 7.6) under gently stirring at room temperature for 90 minutes, and washed out the enzyme from the tissue. Then, oocytes were separated from ovarian follicle by tweezers, and isolated oocytes were placed in antibiotics containing modified Birth's solution (88 mM of NaCl, 1 mM of KCl, 2.4 mM of NaHCO3, 0.82 mM of MgSO4, 15 mM of HEPES, pH 7.6, and 0.1 v/v% of mixture solution containing of penicillin and streptomycin for incubation; Sigma Co.). […] In oocytes, heterogeneous quintuple [(α4)2(β2)3] was composed by translation of injected cRNAs, and ion channel receptors were constructed on cell membrane.
(3) Agonist Activities at Human α4β2 Subtype of Nicotinic Acetylcholine Receptors
Recordings of response at human α4β2 subtype of nicotinic acetylcholine receptors by means of membrane potential holding method were performed as follow. […] Test compounds were added to the perfusion solution, and recorded the peak strength of induced inward current. In order to normalize the response of test compounds, the response with acetylcholine (Ach) were recorded before and after application of the test compounds. Generally in the oocytes just after isolated, the response of intrinsic muscarinic acetylcholine receptors, which is inward electric current caused by activation of calcium dependence chloride ion channels with increase of the intracellular calcium concentration by stimulation of receptors, is observed. […] Therefore, the responses observed in oocytes with injection of hnACh-R α4 cRNA and hnACh-R β2 cRNA, i.e., the inward current induced by the intracellular influx of sodium ion according to the stimulation of receptors, would be the freshly observed responses of human α4β2 subtype nicotinic acetylcholine receptors.

[3] = rat brain membrane, [3H]-cytisine (2 nM), read-out: Affinities for receptors Ki α4β2
[4] = Xenopus oocytes expressing human α4β2, held at −50 mV, peak inward current, read-out: Agonist activity (ED50)
[5] = 100 μM test compound, in comparison with the response at 10 μM acetylcholine (100%)

T1 sequence (P09483 31-630): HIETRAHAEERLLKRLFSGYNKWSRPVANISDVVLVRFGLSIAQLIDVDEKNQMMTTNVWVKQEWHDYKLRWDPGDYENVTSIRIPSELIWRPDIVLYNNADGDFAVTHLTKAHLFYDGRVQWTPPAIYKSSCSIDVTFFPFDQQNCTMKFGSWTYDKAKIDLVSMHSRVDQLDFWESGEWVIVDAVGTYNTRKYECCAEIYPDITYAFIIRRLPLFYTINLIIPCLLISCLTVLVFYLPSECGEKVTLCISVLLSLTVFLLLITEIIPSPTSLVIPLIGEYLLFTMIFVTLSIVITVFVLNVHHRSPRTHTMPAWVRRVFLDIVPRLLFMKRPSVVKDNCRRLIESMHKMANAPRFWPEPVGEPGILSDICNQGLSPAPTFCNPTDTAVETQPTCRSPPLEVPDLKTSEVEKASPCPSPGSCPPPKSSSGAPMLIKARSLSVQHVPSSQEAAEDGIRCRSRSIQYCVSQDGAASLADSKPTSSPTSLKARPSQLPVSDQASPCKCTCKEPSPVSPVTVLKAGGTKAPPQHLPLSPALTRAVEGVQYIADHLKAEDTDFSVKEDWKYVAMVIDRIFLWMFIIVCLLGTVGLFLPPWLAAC
T1 sequence (P12390 25-500): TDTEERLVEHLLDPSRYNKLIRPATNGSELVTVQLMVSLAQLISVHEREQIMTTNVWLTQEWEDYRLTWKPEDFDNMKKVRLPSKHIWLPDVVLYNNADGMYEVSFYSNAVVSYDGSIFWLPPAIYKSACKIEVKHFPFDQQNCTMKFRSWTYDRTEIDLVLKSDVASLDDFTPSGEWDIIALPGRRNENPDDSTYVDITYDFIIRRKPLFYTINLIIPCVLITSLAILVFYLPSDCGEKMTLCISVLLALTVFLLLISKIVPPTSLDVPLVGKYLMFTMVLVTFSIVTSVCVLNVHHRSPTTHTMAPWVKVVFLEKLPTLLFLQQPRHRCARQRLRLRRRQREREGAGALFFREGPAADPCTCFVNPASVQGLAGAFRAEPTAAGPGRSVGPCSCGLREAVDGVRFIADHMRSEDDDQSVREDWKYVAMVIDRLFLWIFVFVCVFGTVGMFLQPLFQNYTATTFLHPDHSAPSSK
T2 sequence (P43681 29-627 limits assumed): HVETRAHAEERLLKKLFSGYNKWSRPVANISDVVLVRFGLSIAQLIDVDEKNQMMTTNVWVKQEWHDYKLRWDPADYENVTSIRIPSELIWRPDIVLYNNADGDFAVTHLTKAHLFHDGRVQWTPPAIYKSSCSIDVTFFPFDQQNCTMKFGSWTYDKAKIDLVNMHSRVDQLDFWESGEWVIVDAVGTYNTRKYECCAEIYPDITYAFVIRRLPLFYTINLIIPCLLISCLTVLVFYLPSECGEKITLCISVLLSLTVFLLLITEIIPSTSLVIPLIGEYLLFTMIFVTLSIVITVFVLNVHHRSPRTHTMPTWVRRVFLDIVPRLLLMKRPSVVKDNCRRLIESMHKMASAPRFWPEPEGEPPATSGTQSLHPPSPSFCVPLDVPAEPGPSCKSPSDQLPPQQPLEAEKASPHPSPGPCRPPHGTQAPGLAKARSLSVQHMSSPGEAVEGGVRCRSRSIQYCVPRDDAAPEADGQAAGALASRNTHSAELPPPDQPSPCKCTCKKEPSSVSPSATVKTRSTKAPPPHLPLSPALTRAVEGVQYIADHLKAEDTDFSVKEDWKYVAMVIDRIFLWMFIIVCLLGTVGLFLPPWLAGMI
T2 sequence (P17787 26-502): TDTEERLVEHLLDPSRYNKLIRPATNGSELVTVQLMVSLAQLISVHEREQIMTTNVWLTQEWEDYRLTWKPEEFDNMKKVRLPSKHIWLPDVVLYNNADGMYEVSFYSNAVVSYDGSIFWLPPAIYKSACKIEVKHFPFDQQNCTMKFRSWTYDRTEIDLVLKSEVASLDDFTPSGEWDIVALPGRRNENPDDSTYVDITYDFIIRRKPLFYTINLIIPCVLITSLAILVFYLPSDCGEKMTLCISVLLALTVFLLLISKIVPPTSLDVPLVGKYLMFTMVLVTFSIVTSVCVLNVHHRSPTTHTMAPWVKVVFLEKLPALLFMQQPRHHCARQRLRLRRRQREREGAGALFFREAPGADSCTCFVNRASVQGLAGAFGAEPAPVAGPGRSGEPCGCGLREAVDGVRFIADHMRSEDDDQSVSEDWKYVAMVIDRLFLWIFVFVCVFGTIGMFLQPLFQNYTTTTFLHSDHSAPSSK

SMILES	Ki [1]	Emax at 100 µM [2]	Ki [1, 3]	other results
N=C1SCCN1Cc1ccc(Cl)cc1 [Compound 31, 3-(4-chlorobenzyl)-2-iminothiazolidine]	93 nM	4%	–	–
N=C1SCCN1Cc1cnc(Cl)s1 [Compound 34, 3-(2-chloro-5-thiazolyl)methyl-2-iminothiazolidine]	4.9 nM	13%	–	–
N=C1CCCN1Cc1ccc(Cl)nc1 [Compound 14, 1-(6-Chloro-3-pyridyl)methyl-2-iminopyrrolidine]	–	–	1.9 nM	EC50 [2]: 27100 nM
N=C1NCCN1Cc1ccc(Cl)nc1 [Compound 13, 1-(6-Chloro-3-pyridyl)methyl-2-iminoimidazolidine]	–	–	4.6 nM	EC50 [2, 4]: 14700 nM
N=c1ccccn1Cc1ccc(Cl)nc1 [Compound 7, 1-(6-chloro-3-pyridyl)methyl-2-imino-1,2-dihydropyridine]	–	–	3.1 nM	Emax at 100 µM [2, 5]: 16%
Nc1nccn1Cc1ccc(Cl)nc1 [Compound 9, 2-amino-1-(6-chloro-3-pyridyl)methylimidazole]	–	–	22.2 nM	EC50 [2, 4]: 92000 nM
N=C1SCCN1Cc1ccc(Cl)nc1 [Compound 5, 3-(6-chloro-3-pyridyl)methyl-2-iminothiazolidine]	–	–	2.2 nM	Emax at 100 µM [2, 5]: 4.9%
N=c1ccc(-c2ccccc2)nn1Cc1ccc(Cl)nc1 [Compound 44, 2-(6-chloro-3-pyridyl)methyl-3-imino-6-phenyl-2,3-dihydropyridazine]	64 nM	10%	–	–
N=c1sccn1Cc1ccc(F)nc1 [Compound 12, 3-(6-fluoro-3-pyridyl)methyl-2-imino-2,3-dihydrothiazole]	1.89 nM	21%	–	–
N=c1sccn1Cc1ccc(Br)nc1 [Compound 11, 3-(6-bromo-3-pyridyl)methyl-2-imino-2,3-dihydrothiazole]	0.63 nM	47%	–	–
N=C1SCCN1Cc1ccnnc1 [Compound 33, 2-imino-3-(4-pyridazinyl)methylthiazolidine]	32 nM	6%	–	–
N=c1sccn1Cc1ccc(Cl)nc1 [Compound 8, 3-(6-chloro-3-pyridyl)methyl-2-imino-2,3-dihydrothiazole]	–	–	0.5 nM	EC50 [2, 4]: 4200 nM
Nc1nccn1Cc1cccnc1 [Compound 55, 2-amino-i-(3-pyridyl)methylimidazole]	–	–	43 nM	Emax at 100 µM [2, 5]: 17%
